In the supplement of paper PMC10307832 one finds relative viability data, which are given here for 1 cell line.

Assay in all cases: relative viability (nuclei count vs DMSO), 5 days (fraction); higher = more cells survive
Compound in assay [1]: CC[C@H](Nc1ncnc2[nH]cnc12)c1nc2cccc(F)c2c(=O)n1-c1ccccc1 [Idelalisib] + CCNC(=O)c1noc(-c2cc(C(C)C)c(O)cc2O)c1-c1ccc(CN2CCOCC2)cc1 [Luminespib] (partner 0.01 µM)
In outline:
(§1)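 Lung cancer cell lines in 1536-well plates were dosed by pin tool the day after seeding, either with one drug alone or with a fixed anchor-drug dose plus five library-drug doses (not always all listed) in √10 steps. After 5 days, cells were fixed and their nuclei stained in one step (final 0.05% Triton X-100, 1% formaldehyde, 1 ug/ml Hoechst), then counted on 4× images. Relative viability is the nuclei count in treated wells divided by that in vehicle wells. Values are medians of duplicate plates.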

Compound in assay [2]: Nc1nc2[nH]cc(CCc3ccc(C(=O)N[C@@H](CCC(=O)O)C(=O)O)cc3)c2c(=O)[nH]1 [Pemetrexed] + CS(=O)(=O)N1CCN(Cc2cc3nc(-c4cccc5[nH]ncc45)nc(N4CCOCC4)c3s2)CC1 [Pictilisib] (partner 1 µM)
In short, it runs like this:
as §1

Compound in assay [3]: CC[C@H](Nc1ncnc2[nH]cnc12)c1nc2cccc(F)c2c(=O)n1-c1ccccc1 [Idelalisib] + C[C@]1(O)C[C@@H](c2nc(-c3ccc4ccc(-c5ccccc5)nc4c3)c3c(N)nccn32)C1 [Linsitinib] (partner 1 µM)
In short, it runs like this:
as §1

Compound in assay [4]: Nc1nc2[nH]cc(CCc3ccc(C(=O)N[C@@H](CCC(=O)O)C(=O)O)cc3)c2c(=O)[nH]1 [Pemetrexed] + CS(=O)(=O)CCNCc1ccc(-c2ccc3ncnc(Nc4ccc(OCc5cccc(F)c5)c(Cl)c4)c3c2)o1 [Lapatinib] (partner 2 µM)
In short, it runs like this: as §1

Regarding UMC-11, the relative viability in assay [1] (first compound 0.04 µM) was found to be 0.902; in assay [1] (first compound 0.1265 µM) it was 1.13; in assay [1] (first compound 0.4 µM) it was 1.08; in assay [1] (first compound 1.265 µM) it was 1.03; in assay [1] (first compound 4 µM), 0.949; in assay [2] (first compound 0.002 µM), 0.809. Also, the relative viability in assay [2] (first compound 0.006325 µM) was 0.807; in assay [2] (first compound 0.02 µM) it was 0.837; in assay [2] (first compound 0.06325 µM) it was 0.781; in assay [2] (first compound 0.2 µM), 0.556; in assay [3] (first compound 0.04 µM), 0.912; in assay [3] (first compound 0.1265 µM), 1.02. Also, the relative viability amounted to 0.966 in assay [3] (first compound 0.4 µM); 1.01 in assay [3] (first compound 1.265 µM); 1.06 in assay [3] (first compound 4 µM); 1.24 in assay [4] (first compound 0.002 µM); 0.952 in assay [4] (first compound 0.006325 µM); 1.11 in assay [4] (first compound 0.02 µM). The relative viability in assay [4] (first compound 0.06325 µM) worked out at 1.05; in assay [4] (first compound 0.2 µM), 0.746.
